Experiments:
BTK = target: T1, BTK (Homo sapiens, UniProt Q06187); assay: BTK degradation in TMD-8 cells (HTRF assay); type: cell-based; conditions: 6 h treatment, IC50 (DC50) of BTK degradation
T1 construct: High control=Cell group with added DMSO and without compound, indicating microplate readings without BTK degradation; endogenous in cells; host or cells: TMD-8
Method in brief: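 BTK remaining after compound treatment was measured by HTRF (337 nm excitation, 665/620 nm emission) in lysates of TMD-8 cells. Cells were exposed for 6 h to eight 6-fold-spaced concentrations in 0.2% DMSO. DC50 values were obtained from a Hill-equation fit (top, bottom, slope) of % inhibition.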

HEK-293 cells = assay: HEK-293 cytotoxicity detection (CellTiter-Glo); type: cell-based; conditions: Homo sapiens; HEK-293 cells, 72 h incubation, CellTiter-Glo luminescence, IC50 of cell proliferation inhibition; read-out: HEK293
Method in brief: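 Four-parameter logistic fitting of percent inhibition versus concentration gives IC50. Luminescent ATP read-out (CellTiter-Glo) after 72 h compound treatment of HEK-293 cells, 8 doses in 4-fold steps from a 5 mM 500× DMSO stock, final DMSO 0.2%.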

T1 sequence (Q06187 whole entry): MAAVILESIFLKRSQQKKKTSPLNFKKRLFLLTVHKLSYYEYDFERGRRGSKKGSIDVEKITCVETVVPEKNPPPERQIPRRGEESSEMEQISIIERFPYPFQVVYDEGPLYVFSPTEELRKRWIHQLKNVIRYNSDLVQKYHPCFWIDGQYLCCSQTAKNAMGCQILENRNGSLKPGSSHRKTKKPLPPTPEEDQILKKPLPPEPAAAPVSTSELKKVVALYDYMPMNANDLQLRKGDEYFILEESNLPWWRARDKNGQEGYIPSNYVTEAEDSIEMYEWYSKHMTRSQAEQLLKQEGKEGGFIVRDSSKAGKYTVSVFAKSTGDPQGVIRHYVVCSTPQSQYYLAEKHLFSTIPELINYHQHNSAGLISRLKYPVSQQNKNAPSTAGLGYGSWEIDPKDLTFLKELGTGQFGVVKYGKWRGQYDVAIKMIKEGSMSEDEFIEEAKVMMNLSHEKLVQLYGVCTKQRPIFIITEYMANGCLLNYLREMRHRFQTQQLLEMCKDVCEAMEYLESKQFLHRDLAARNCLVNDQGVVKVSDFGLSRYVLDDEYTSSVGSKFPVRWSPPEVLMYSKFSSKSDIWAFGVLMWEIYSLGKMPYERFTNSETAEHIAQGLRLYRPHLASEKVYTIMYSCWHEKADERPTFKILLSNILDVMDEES

SMILES	DC50 (BTK)	IC50 (HEK-293 cells)
CC(C)(C)c1noc(C(=O)N[C@@H]2CCc3cc(-c4ncnc5[nH]c6cc(N7CCN(CC8CCN(c9ccc(N%10CCC(=O)NC%10=O)cc9)CC8)CC7)ccc6c45)ccc32)n1 [Example 37, (R)-3-(tert-butyl)-N-(5-(7-(4-((1-(4-(2,4-dioxotetrahydropyrimidin-1(2H)-yl)phenyl)piperidin-4-yl)methyl)piperazin-1-yl)-9H-pyrimido[4,5-b]indol-4-yl)-2,3-dihydro-1H-inden-1-yl)-1,2,4-oxadiazole-5-carboxamide]	57.6 nM	> 10000 nM
Cc1cc2c(cc1N1CCN(CC3CCN(c4ccc(N5CCC(=O)NC5=O)cc4)CC3)CC1)[nH]c1ncnc(-c3cc(CO)c([C@@H](C)NC(=O)c4nc(C(C)(C)C)no4)cc3F)c12 [Example 40, (R)-3-(tert-butyl)-N-(1-(4-(7-(4-((1-(4-(2,4-dioxotetrahydropyrimidin-1(2H)-yl)phenyl)piperidin-4-yl)methyl)piperazin-1-yl)-6-methyl-9H-pyrimido[4,5-b]indol-4-yl)-5-fluoro-2-(hydroxymethyl)phenyl)ethyl)-1,2,4-oxadiazole-5-carboxamide]	2.12 nM	> 10000 nM
Cc1cc(-c2ncnc3[nH]c4cc(C5CCN(C6CC(c7ccc(C8CCC(=O)NC8=O)cc7)C6)CC5)ncc4c23)ccc1[C@@H](C)NC(=O)c1nc(C(C)(C)C)no1 (stereo partly drawn) [Example 41, 3-(tert-butyl)-N-((1R)-1-(4-(7-(1-(3-(4-(2,6-dioxopiperidin-3-yl)phenyl)cyclobutyl)piperidin-4-yl)-9H-pyrido[3′,4′:4,5]pyrrolo[2,3-d]pyrimidin-4-yl)-2-methylphenyl)ethyl)-1,2,4-oxadiazole-5-carboxamide]	1.85 nM	3350 nM
Cc1cc(-c2ncnc3[nH]c4cc(C5CCN(CC6CCN(c7ccc(N8CCC(=O)NC8=O)cc7)CC6)CC5)ncc4c23)ccc1[C@@H](C)NC(=O)c1nc(C(C)(C)C)no1 [Example 42, (R)-3-(tert-butyl)-N-(1-(4-(7-(1-((1-(4-(2,4-dioxotetrahydropyrimidin-1(2H)-yl)phenyl)piperidin-4-yl)methyl)piperidin-4-yl)-9H-pyrido[3′,4′:4,5]pyrrolo[2,3-d]pyrimidin-4-yl)-2-methylphenyl)ethyl)-1,2,4-oxadiazole-5-carboxamide]	1.29 nM	6730 nM
Cc1cc(-c2ncnc3[nH]c4cc(N5CCN(CC6CCN(c7ccc(N8CCC(=O)NC8=O)cc7)CC6)CC5)c(C)cc4c23)ccc1[C@@H](C)NC(=O)c1nc(C(C)(C)C)no1 [Example 43, (R)-3-(tert-butyl)-N-(1-(4-(7-(4-((1-(4-(2,4-dioxotetrahydropyrimidin-1(2H)-yl)phenyl)piperidin-4-yl)methyl)piperazin-1-yl)-6-methyl-9H-pyrimido[4,5-b]indol-4-yl)-2-methylphenyl)ethyl)-1,2,4-oxadiazole-5-carboxamide]	1.22 nM	> 10000 nM
Cc1cc(-c2ncnc3[nH]c4cc(N5CCN(CC6CCN(c7ccc(N8CCC(=O)NC8=O)cc7)CC6)CC5)c(C)cc4c23)c(F)cc1[C@@H](C)NC(=O)c1noc(C(C)(C)C)n1 [Example 44, (R)-5-(tert-butyl)-N-(1-(4-(7-(4-((1-(4-(2,4-dioxotetrahydropyrimidin-1(2H)-yl)phenyl)piperidin-4-yl)methyl)piperazin-1-yl)-6-methyl-9H-pyrimido[4,5-b]indol-4-yl)-5-fluoro-2-methylphenyl)ethyl)-1,2,4-oxadiazole-3-carboxamide]	1.38 nM	> 10000 nM
Cc1cc2c(cc1N1CCN(CC3CCN(c4ccc(N5CCC(=O)NC5=O)cc4)CC3)CC1)[nH]c1ncnc(-c3ccc([C@@H](C)NC(=O)c4noc(C(C)(C)C)n4)c(C)c3F)c12 [Example 45, (R)-5-(tert-butyl)-N-(1-(4-(7-(4-((1-(4-(2,4-dioxotetrahydropyrimidin-1(2H)-yl)phenyl)piperidin-4-yl)methyl)piperazin-1-yl)-6-methyl-9H-pyrimido[4,5-b]indol-4-yl)-3-fluoro-2-methylphenyl)ethyl)-1,2,4-oxadiazole-3-carboxamide]	1.05 nM	> 10000 nM
COc1cc2c(cc1N1CCN(CC3CC(c4ccc(C5CCC(=O)NC5=O)cc4)C3)CC1)[nH]c1ncnc(-c3ccc([C@@H](C)NC(=O)c4nc(C(C)(C)C)no4)c(C)c3)c12 (stereo partly drawn) [Example 47, 3-(tert-butyl)-N-((1R)-1-(4-(7-(4-((3-(4-(2,6-dioxopiperidin-3-yl)phenyl)cyclobutyl)methyl)piperazin-1-yl)-6-methoxy-9H-pyrimido[4,5-b]indol-4-yl)-2-methylphenyl)ethyl)-1,2,4-oxadiazole-5-carboxamide]	1.7 nM	> 10000 nM

The next compounds have a lower DC50 (BTK) than those just listed; values first:

DC50 (BTK)	SMILES	IC50 (HEK-293 cells)
0.804 nM	Cc1c([C@@H](C)NC(=O)c2noc(C(C)(C)C)n2)ccc(-c2ncnc3[nH]c4cc(N5CCC(CN6CCC(c7ccc(C8CCC(=O)NC8=O)cc7)CC6)CC5)ccc4c23)c1F (stereo partly drawn) [Example 36, 5-(tert-butyl)-N-((1R)-1-(4-(7-(4-((4-(4-(2,6-dioxopiperidin-3-yl)phenyl)piperidin-1-yl)methyl)piperidin-1-yl)-9H-pyrimido[4,5-b]indol-4-yl)-3-fluoro-2-methylphenyl)ethyl)-1,2,4-oxadiazole-3-carboxamide]	3410 nM
0.395 nM	Cc1cc(-c2ncnc3[nH]c4cc(C5CCN(CC6CCN(c7ccc(N8CCC(=O)NC8=O)cc7)CC6)CC5)cnc4c23)ccc1[C@@H](C)NC(=O)c1nc(C(C)(C)C)no1 [Example 38, (R)-3-(tert-butyl)-N-(1-(4-(7-(1-((1-(4-(2,4-dioxotetrahydropyrimidin-1(2H)-yl)phenyl)piperidin-4-yl)methyl)piperidin-4-yl)-9H-pyrido[2′,3′:4,5]pyrrolo[2,3-d]pyrimidin-4-yl)-2-methylphenyl)ethyl)-1,2,4-oxadiazole-5-carboxamide]	3460 nM
0.725 nM	Cc1cc(-c2ncnc3[nH]c4nc(C5CCN(CC6CCN(c7ccc(N8CCC(=O)NC8=O)cc7)CC6)CC5)ccc4c23)ccc1[C@@H](C)NC(=O)c1nc(C(C)(C)C)no1 [Example 39, (R)-3-(tert-butyl)-N-(1-(4-(7-(1-((1-(4-(2,4-dioxotetrahydropyrimidin-1(2H)-yl)phenyl)piperidin-4-yl)methyl)piperidin-4-yl)-9H-pyrido[3′,2′:4,5]pyrrolo[2,3-d]pyrimidin-4-yl)-2-methylphenyl)ethyl)-1,2,4-oxadiazole-5-carboxamide]	4020 nM
0.366 nM	COc1cc2c(cc1N1CCN(CC3CCN(c4ccc(N5CCC(=O)NC5=O)cc4)CC3)CC1)[nH]c1ncnc(-c3ccc([C@@H](C)NC(=O)c4nc(C(C)(C)C)no4)c(C)c3)c12 [Example 46, (R)-3-(tert-butyl)-N-(1-(4-(7-(4-((1-(4-(2,4-dioxotetrahydropyrimidin-1(2H)-yl)phenyl)piperidin-4-yl)methyl)piperazin-1-yl)-6-methoxy-9H-pyrimido[4,5-b]indol-4-yl)-2-methylphenyl)ethyl)-1,2,4-oxadiazole-5-carboxamide]	> 10000 nM
0.874 nM	COc1cc2c(cc1N1CCN(C3CCC(c4ccc(C5CCC(=O)NC5=O)cc4)CC3)CC1)[nH]c1ncnc(-c3ccc([C@@H](C)NC(=O)c4nc(C(C)(C)C)no4)c(C)c3)c12 (stereo partly drawn) [Example 48, 3-(tert-butyl)-N-((1R)-1-(4-(7-(4-(4-(4-(2,6-dioxopiperidin-3-yl)phenyl)cyclohexyl)piperazin-1-yl)-6-methoxy-9H-pyrimido[4,5-b]indol-4-yl)-2-methylphenyl)ethyl)-1,2,4-oxadiazole-5-carboxamide]	> 10000 nM

Reference: US20240366770A1, “DEGRADATION OF BRUTON'S TYROSINE KINASE (BTK) BY CONJUGATION OF BTK INHIBITORS WITH E3 LIGASE LIGAND AND METHODS OF USE” (BeiGene Switzerland GmbH, priority 2021, published 2024)
